This note sets out measurements from patent US20220009894A1, “1,2,3,4-TETRAHYDROQUINOXALINE DERIVATIVE, PREPARATION METHOD THEREFOR AND APPLICATION THEREOF” (Abbisko Therapeutics Co., Ltd., priority 2019, published 2022).

One experiment concerns the target T1, RORγt-LBD (Homo sapiens, UniProt P51449).
T1 sequence (P51449 269-508 limits assumed): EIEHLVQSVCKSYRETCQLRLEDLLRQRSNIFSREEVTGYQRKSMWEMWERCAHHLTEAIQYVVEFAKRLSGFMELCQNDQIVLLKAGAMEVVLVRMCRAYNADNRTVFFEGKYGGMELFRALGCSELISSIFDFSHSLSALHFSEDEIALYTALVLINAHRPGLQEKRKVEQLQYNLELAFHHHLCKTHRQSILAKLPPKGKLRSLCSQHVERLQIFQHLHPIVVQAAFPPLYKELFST
Description: Time-resolved fluorescence resonance energy-transfer assay (TR-FRET), co-activator peptide recruitment. It is filed as biochemical. Details: TR-FRET Biochemical Amax: unit not given here. The settings on record: for EC50: His-RORγt-LBD 30 nM, SRC peptide 500 nM, agonistic activity, averages of one or more measurements, read-out: TR-FRET Biochemical EC50/; for TR-FRET Biochemical Amax: upper activation limit, His-RORγt-LBD, SRC peptide. The method, boiled down: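 This agonist-mode TR-FRET used 30 nM His-tagged RORγt-LBD, 500 nM biotinylated SRC peptide, 0.25 nM Eu-anti-His and 5 nM APC-streptavidin in pH 7.0 Tris/KCl buffer with DTT and Triton. A 7-concentration, 5-fold compound series was incubated at 4 °C overnight plus 1 h at room temperature, and the 665/615 nm signal was read.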
(In general: TR-FRET usually uses a lanthanide donor and a delayed reading to cut background.)

Another experiment deals with T2, RORγt (Homo sapiens, UniProt P51449).
T2 construct: The plasmid of pFN26A-RORγt-LBD and pG14.35 (Promega, Cat. No. E1370) were co-transfected into HEK 293 cells; expressed in transfected cells; host or cells: HEK 293 cells (Cat. No. GNHu18)
T2 sequence (P51449 269-508 limits assumed): T1 sequence (P51449 269-508 limits assumed)
Description: RORγt cellular reporter gene detection assay.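 On Cellular Reporter Assay Amax: Ursolic Acid added as 5 µL of 20 µM medium per well.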 The experiment is classed as cell-based. The settings on record: 24 hrs; for EC50: HEK 293 cells co-transfected with pFN26A-RORγt-LBD and pG14.35, in presence of antagonist Ursolic acid, top concentration 50 μM; for Cellular Reporter Assay Amax: upper activation limit, HEK 293 cells, in presence of antagonist Ursolic acid. A digest of the protocol:
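Compounds, titrated 4-fold from a 50 μM top concentration, were added with Ursolic acid to HEK293 cells carrying a RORγt-LBD plasmid and a reporter plasmid. After 24 h at 37° C, dual firefly/Renilla luciferase readout; four-parameter curves gave EC50 and maximal activation (Amax).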

For `NS(=O)(=O)N1CCN2c3ccc(/C=C/c4c(Cl)cccc4C(F)(F)F)cc3N(S(=O)(=O)c3cccc(C(F)(F)F)c3)C[C@@H]2C1` [Example 68, (R,E)-8-(2-chloro-6-(trifluorometh-yl)styryl)-6-((3-(trifluorometh-yl)phenyl)sulfonyl)-1,2,4,4a,5,6-hexahydro-3H-pyrazino[1,2-a]quinoxaline-3-sulfonamide], at RORγt-LBD, the EC50 was 30.5 nM and the “TR-FRET Biochemical Amax” value was 1.03. Also, on RORγt, the EC50 is 151 nM and the “Cellular Reporter Assay Amax” value worked out at 2.5.

Turning to `C/C(=C\c1ccc2c(c1)N(S(=O)(=O)c1cccc(C(F)(F)F)c1)C[C@@H]1CN(C(CO)CO)CCN21)c1c(F)cccc1Cl` [Example 69, (S,E)-2-(8-(2-(2-chloro-6-fluorophenyl)prop-1-en-1-yl)-6-((3-(trifluoromethyl)phenyl)sulfonyl)-1,2,4,4a,5,6-hexahydro-3H-pyrazino[1,2-a]quinoxalin-3-yl)propane-1,3-diol], on RORγt-LBD, the EC50 worked out at 44.4 nM and the “TR-FRET Biochemical Amax” value is listed as 1.05. In addition, at RORγt, the EC50 amounted to 600 nM and the “Cellular Reporter Assay Amax” value was 5.8.

As to `O=S(=O)(c1cccc(C(F)(F)F)c1)N1C[C@@H]2CN(C(CO)CO)CCN2c2ccc(-c3cc(F)cc(OC(F)F)c3)cc21` [Example 70, (S)-2-(8-(3-(difluoromethoxy)-5-fluorophenyl)-6-((3-(trifluorometh-yl)phenyl)sulfonyl)-1,2,4,4a,5,6-hexahydro-3H-pyrazino[1,2-a]quinoxalin-3-yl)propane-1,3-diol], on RORγt-LBD, the EC50 stood at 64.2 nM and the “TR-FRET Biochemical Amax” value turned out to be 0.99. For the same compound, on RORγt, the EC50 turned out to be 531 nM and the “Cellular Reporter Assay Amax” value came to 4.2.

`C/C(=C\c1ccc2c(c1)N(S(=O)(=O)c1cccc(C(F)(F)F)c1)C[C@@H]1CN(C(C)(CO)CO)CCN21)c1c(F)cccc1Cl` [Example 71, (S,E)-2-(8-(2-(2-chloro-6-fluorophenyl)prop-1-en-1-yl)-6-((3-(trifluoromethyl)phenyl)sulfonyl)-1,2,4,4a,5,6-hexahydro-3H-pyrazino[1,2-a]quinoxalin-3-yl)-2-methylpropane-1,3-diol]: at RORγt-LBD, the EC50 was determined as 40.5 nM and the “TR-FRET Biochemical Amax” value is 0.97. Besides, on RORγt, the EC50 was determined as 498 nM and the “Cellular Reporter Assay Amax” value was determined as 3.5.

As for `CC(CO)(CO)N1CCN2c3ccc(-c4cc(F)cc(OC(F)F)c4)cc3N(S(=O)(=O)c3cccc(C(F)(F)F)c3)C[C@@H]2C1` [Example 72, (S)-2-(8-(3-(difluoromethoxy)-5-fluorophenyl)-6-((3-(trifluoro-methyl)phenyl)sulfonyl)-1,2,4,4a,5,6-hexahydro-3H-pyra-zino[1,2-a]quinoxalin-3-yl)-2-methylpropane-1,3-diol], on RORγt-LBD, the EC50 came to 42.3 nM and the “TR-FRET Biochemical Amax” value is 0.65. Besides, at RORγt, the EC50 amounted to 238 nM and the “Cellular Reporter Assay Amax” value was determined as 2.6.

Turning to `C/C(=C\c1ccc2c(c1)N(S(=O)(=O)c1cccc(C(F)(F)F)c1)C[C@@H]1CN(C(C#N)(CO)CO)CCN21)c1c(F)cccc1Cl` [Example 73, (S,E)-2-(8-(2-(2-chloro-6-fluorophenyl)prop-1-en-1-yl)-6-((3-(trifluoromethyl)phenyl)sulfonyl)-1,2,4,4a,5,6-hexahydro-3H-pyrazino[1,2-a]quinoxalin-3-yl)-3-hydroxy-2-(hydroxynethyl)propanenitrile], on RORγt-LBD, the EC50 was determined as 40 nM and the “TR-FRET Biochemical Amax” value is listed as 0.96. On RORγt, the EC50 came out at 725 nM and the “Cellular Reporter Assay Amax” value amounted to 4.6.

On to `N#CC(CO)(CO)N1CCN2c3ccc(-c4cc(F)cc(OC(F)F)c4)cc3N(S(=O)(=O)c3cccc(C(F)(F)F)c3)C[C@@H]2C1` [Example 74, (S)-2-(8-(3-(difluoromethoxy)-5-fluorophenyl)-6-((3-(trifluoromethyl)phenyl)sulfonyl)-1,2,4,4a,5,6-hexahydro-3H-pyrazino[1,2-a]quinoxalin-3-yl)-3-hydroxy-2-(hydroxymethyl)propanenitrile], for which, on RORγt-LBD, the EC50 worked out at 45.1 nM and the “TR-FRET Biochemical Amax” value is recorded as 1.20. On RORγt, the EC50 amounted to 1040 nM and the “Cellular Reporter Assay Amax” value worked out at 6.2.

For `C/C(=C\c1ccc2c(c1)N(S(=O)(=O)c1cccc(C(F)(F)F)c1)C[C@@H]1CN(C(CO)(CO)C(N)=O)CCN21)c1c(F)cccc1Cl` [Example 75, (S,E)-2-(8-(2-(2-chloro-6-fluorophenyl)prop-1-en-1-yl)-6-((3-(trifluoromethyl)phenyl)sulfonyl)-1,2,4,4a,5,6-hexahydro-3H-pyrazino[1,2-a]quinoxalin-3-yl)-3-hydroxy-2-(hydroxymethyl)propanamide], at RORγt-LBD, the EC50 amounted to 55.7 nM and the “TR-FRET Biochemical Amax” value was 0.87. In addition, on RORγt, the EC50 stood at 1190 nM and the “Cellular Reporter Assay Amax” value came out at 3.7.

Consider `C/C(=C\c1ccc2c(c1)N(S(=O)(=O)c1cccc(C(F)(F)F)c1)C[C@@H]1CN(C3(C#N)CCC3)CCN21)c1c(F)cccc1Cl` [Example 76, (S,E)-1-(8-(2-(2-chloro-6-fluorophenyl)prop-1-en-1-yl)-6-((3-(trifluoromethyl)phenyl)sulfonyl)-1,2,4,4a,5,6-hexahydro-3H-pyrazino[1,2-a]quinoxalin-3-yl)cyclobutane-1-carbonitrile], for which, at RORγt-LBD, the EC50 amounted to 6.54 nM and the “TR-FRET Biochemical Amax” value is 0.99. Also, at RORγt, the EC50 was found to be 1180 nM and the “Cellular Reporter Assay Amax” value stood at 3.2.

Consider `N#CC1(N2CCN3c4ccc(-c5cc(F)cc(OC(F)F)c5)cc4N(S(=O)(=O)c4cccc(C(F)(F)F)c4)C[C@@H]3C2)CCC1` [Example 77, (S)-1-(8-(3-(difluoromethoxy)-5-fluorophenyl)-6-((3-(trifluoro-methyl)phenyl)sulfonyl)-1,2,4,4a,5,6-hexahydro-3H-pyra-zino[1,2-a]quinoxalin-3-yl)cyclo-butane-1-carbonitrile], for which, at RORγt-LBD, the EC50 amounted to 18.3 nM and the “TR-FRET Biochemical Amax” value came to 0.95. Moreover, at RORγt, the EC50 is 1470 nM and the “Cellular Reporter Assay Amax” value was determined as 3.7.

In the case of `N#CC1(N2CCN3c4ccc(/C=C/c5c(Cl)cccc5C(F)(F)F)cc4N(S(=O)(=O)c4cccc(C(F)(F)F)c4)C[C@@H]3C2)CCC1` [Example 78, (S,E)-1-(8-(2-chloro-6-(trifluoro-methyl)styryl)-6-((3-(trifluoro-methyl)phenyl)sulfonyl)-1,2,4,4a,5,6-hexahydro-3H-pyra-zino[1,2-a]quinoxalin-3-yl)cyclo-butane-1-carbonitrile], at RORγt-LBD, the EC50 was 5.2 nM and the “TR-FRET Biochemical Amax” value came out at 0.67. Further, at RORγt, the EC50 turned out to be 822 nM and the “Cellular Reporter Assay Amax” value is 2.4.

Take `C/C(=C\c1ccc2c(c1)N(S(=O)(=O)c1cccc(C(F)(F)F)c1)C[C@@H]1CN(C3(C(N)=O)CCC3)CCN21)c1c(F)cccc1Cl` [Example 79, (S,E)-1-(8-(2-(2-chloro-6-fluorophenyl)prop-1-en-1-yl)-6-((3-(trifluoromethyl)phenyl)sulfonyl)-1,2,4,4a,5,6-hexahydro-3H-pyrazino[1,2-a]quinoxalin-3-yl)cyclobutane-1-carboxamide]: on RORγt-LBD, the EC50 is 28.2 nM and the “TR-FRET Biochemical Amax” value came out at 1.15. On RORγt, the EC50 stood at 267 nM and the “Cellular Reporter Assay Amax” value amounted to 2.8.

For `NC(=O)C1(N2CCN3c4ccc(-c5cc(F)cc(OC(F)F)c5)cc4N(S(=O)(=O)c4cccc(C(F)(F)F)c4)C[C@@H]3C2)CCC1` [Example 80, (S)-1-(8-(3-(difluoromethoxy)-5-fluorophenyl)-6-((3-(trifluoro-methyl)phenyl)sulfonyl)-1,2,4,4a,5,6-hexahydro-3H-pyrazino[1,2-a]quinoxalin-3-yl)cyclobutane-1-carboxamide], at RORγt-LBD, the EC50 amounted to 39.3 nM and the “TR-FRET Biochemical Amax” value was 1.04. On RORγt, the EC50 turned out to be 209 nM and the “Cellular Reporter Assay Amax” value is 3.4.

As to `NC(=O)C1(N2CCN3c4ccc(/C=C/c5c(Cl)cccc5C(F)(F)F)cc4N(S(=O)(=O)c4cccc(C(F)(F)F)c4)C[C@@H]3C2)CCC1` [Example 81, (S,E)-1-(8-(2-chloro-6-(trifluoro-methyl)styryl)-6-((3-(trifluoro-methyl)phenyl)sulfonyl)-1,2,4,4a,5,6-hexa-hydro-3H-pyrazino[1,2-a]quinoxalin-3-yl) cyclobutane-1-carboxamide], on RORγt-LBD, the EC50 was 21.2 nM and the “TR-FRET Biochemical Amax” value was 1.19. At RORγt, the EC50 is 355 nM and the “Cellular Reporter Assay Amax” value is listed as 4.0.
